Experiment [1] deals with mitotic marker phospho-histone H3 at serine 10 (pH3 (Ser10)) in transformed BJ cells. Kind of experiment: Immunoblot analysis of mitotic marker pH3 (Ser10), derivatives of Compound 1. Conditions: Homo sapiens, band intensities pH3(Ser10)/β-actin vs DMSO control, 24 h. The experiment is classed as cell-based. On the procedure:
(§1) FIG. 4 compares the ability of Compound 1 (a131), and various derivatives thereof (referred to using their code numbers for brevity; the designated chemical compound for each code number is provided in the chemical examples section below), to inhibit autophagy and/or mitosis. BJ transformed cells were treated with 5 μM of various Compounds as shown, for 24 h. Cells were harvested and total lysates were analysed by detecting the mitotic marker phospho-histone H3 at serine 10 (pH3 (Ser10)) and the autophagosome marker LC3. Antibodies raised against β-actin were used as an internal loading control.
(§2) The ability of Compound 1 to inhibit lysosome function was examined using immunoblotting. HeLa cervical cancer cells were cultured in Dulbecco's modified Eagle's medium (DMEM) supplemented with 10% Fetal Bovine Serum (FBS, Thermo Scientific). The HeLa cells were treated with different concentrations of Compound 1 (0.625, 1.25, 2.5, 5 and 10 μM, dimethyl sulfoxide (DMSO, Kanto Kagaku)), chloroquine (CQ) (1.25, 2.5, 10, 50 and 100 μM, DMSO) or DMSO for 6 h. Then, the treated cells were harvested and lysed in 1% triton lysis buffer [25 mM Tris HCl (pH8.0), 150 mM NaCl, 1% triton-X100, 1 mM dithiothreitol (DTT), protease inhibitor mix (Complete Mini, Roche) and phosphatase inhibitor (PhosphoStop, Roche)]. The proteins in total lysates were boiled with sample buffer (60 mM Tris-HCl (pH 6.8), 25% glycerol, 2% SDS, 14.4 mM 2-mercaptoethanol, 0.1% bromophenol blue) and resolved by 14% tris-glycine sodium dodecyl sulfate polyacrylamide gel electrophoresis (SDS-PAGE) and subjected to immunoblot analysis.
(§3) Defects in lysosome function and inhibition of autophagy can be measured by accumulation of LC3-phosphatidylethanolamine conjugated non-soluble form (LC3-II), which are converted from soluble LC3-I. Thus, antibodies raised against LC3 (Cell Signaling, Cat#4108) were used to determine lysosomal function and integrity. Antibodies raised against phosphorylated histone H3 at serine 10 residue (pH3) (Cell signaling, Cat#3377) were used as the marker for mitotic dysfunction and arrest. Antibodies raised against β-actin (Millipore, Cat#MAB1501) were used as an internal loading control. The inhibitory ability of Compound 1 was also quantitatively compared to CQ.
(§4) Derivatives of Compound 1 were tested to see if they had similar dual activity, or presented only one of the activities of Compound 1. The protocol for immunoblot analysis described in Biology Example 1 was applied to the additional indicated compounds.
(§5) Activities of compounds were determined by two independent experiments. First, Compounds were classified according to the intensity of increase in each of the mitotic marker phospho-histone H3 at serine 10 (pH3 (Ser 10)) and the autophagosome marker LC3, respectively, at 1.25 μM, when compared with 1.25 μM Compound 1 (a131).
(§6) Compounds classified “++” on either “mitosis” or “inhibits lysosome” show similar increase in each of the mitotic marker phospho-histone H3 at serine 10 (pH3 (Ser10)) and the autophagosome marker LC3, respectively, at 2.5 μM, when compared with 1.25 μM Compound 1 (a131); and compounds classified “+” on either “mitosis” or “inhibits lysosome” show similar increase in each of the mitotic marker phospho-histone H3 at serine 10 (pH3 (Ser10)) and the autophagosome marker LC3, respectively, at a concentration range of 5-10 μM, when compared with 1.25 μM Compound 1 (a131).
Compounds classified “+/−” on either “mitosis” or “inhibits lysosome” show less increase in each of the mitotic marker phospho-histone H3 at serine 10 (pH3 (Ser10)) and the autophagosome marker LC3, respectively, at a concentration range of 5-10 μM, when compared with 1.25 μM Compound 1 (a131).
Next, the ability of Compound 1 and its derivatives to induce mitotic arrest in transformed BJ cells was quantified as the fold induction of band intensities [pH3(Ser10)/β-actin] in comparison with DMSO control. […]
Background: In western blotting, separated proteins are transferred to a membrane and probed.

Experiment [2] deals with autophagosome marker LC3 (LC3 II/LC3 I) in transformed BJ cells. As to the kind of experiment: Immunoblot analysis of autophagosome marker LC3 (lysosome function), derivatives of Compound 1. It counts as cell-based. Conditions: Homo sapiens, band intensities LC3 II/LC3 I vs DMSO control, 24 h. On the procedure:
as §1, §2, §3, §4, §5, §6
Compounds classified “+/−” on either “mitosis” or “inhibits lysosome” show less increase in each of the mitotic marker phospho-histone H3 at serine 10 (pH3 (Ser10)) and the autophagosome marker LC3, respectively, at a concentration range of 5-10 μM, when compared with 1.25 μM Compound 1 (a131). […]

Experiment [3] deals with pH3 (Ser10) and LC3 in BJ transformed cells. Kind of experiment: Immunoblot classification of compounds by pH3 and LC3 (FIG. 4). The experiment is classed as cell-based, human. The following applies: 5 μM, 24 h. The procedure:
as §1, §4

Each structure is given as a SMILES string.

`COc1ccc2[nH]cc(/C(C#N)=C/c3cccc4cnccc34)c2c1` [Compound 2, (Z)-3-(isoquinolin-5-yl)-2-(5-methoxy-1H-indol-3-yl)acrylonitrile]: the figures for the fold induction at 5 µM in experiment [1] and in experiment [2] were 3 and 3.2, respectively. The “Inhibition of lysosome function and/or mitosis (FIG. 4)” value (shortened to “Inhibition”) in experiment [3] is “exhibit the dual properties of inhibiting both lysosome function and mitosis”.
With `N#C/C(=C\c1cncc2cnccc12)c1c[nH]c2ccccc12` [Compound 4, (Z)-2-(1H-indol-3-yl)-3-(2,7-naphthyridin-4-yl)acrylonitrile], the fold induction (usually the ratio of treated to control signal) at 5 µM in experiment [1] worked out at 1.4; in experiment [2], 1.
The like results for `N#C/C(=C\c1cccc2cnccc12)c1c[nH]c2c(Br)cccc12` [Compound 5, (Z)-2-(7-bromo-1H-indol-3-yl)-3-(isoquinolin-5-yl)acrylonitrile] were, in that order, 1.4 and 2.2.
Regarding `COc1cccc2c(/C(C#N)=C/c3cccc4cnccc34)c[nH]c12` [Compound 6, (Z)-3-(isoquinolin-5-yl)-2-(7-methoxy-1H-indol-3-yl)acrylonitrile], the figures for the fold induction at 5 µM in experiment [1] and in experiment [2] were 3.9 and 2.7, respectively. The “Inhibition” value in experiment [3] is “exhibit the dual properties of inhibiting both lysosome function and mitosis”.
As for `N#C/C(=C\c1cccc2cnccc12)c1c[nH]c2ccc(Cl)cc12` [Compound 7, (Z)-2-(5-chloro-1H-indol-3-yl)-3-(isoquinolin-5-yl)acrylonitrile], the fold induction at 5 µM stood at 1.4 in experiment [1] and 2 in experiment [2]. Also, in experiment [3], the “Inhibition” value is on record as “inhibit lysosome function only”.
Consider `N#C/C(=C\c1cccc2cnccc12)c1c[nH]c2ccc(Br)cc12` [Compound 8, (Z)-2-(5-bromo-1H-indol-3-yl)-3-(isoquinolin-5-yl)acrylonitrile], for which the fold induction at 5 µM amounted to 2.1 in experiment [1] and 4 in experiment [2]. For the same compound, the “Inhibition” value in experiment [3] was “exhibit the dual properties of inhibiting both lysosome function and mitosis”.
As for `COc1ccc2c(/C(C#N)=C/c3cccc4cnccc34)c[nH]c2c1` [Compound 9, (Z)-3-(isoquinolin-5-yl)-2-(6-methoxy-1H-indol-3-yl)acrylonitrile], the fold induction at 5 µM in experiment [1] was 4.3; in experiment [2], 2.6. Besides, the “Inhibition” value in experiment [3] was “exhibit the dual properties of inhibiting both lysosome function and mitosis”.
For the compound `N#C/C(=C\c1cccc2cnccc12)c1c[nH]c2cc(Br)ccc12` [Compound 10, (Z)-2-(6-bromo-1H-indol-3-yl)-3-(isoquinolin-5-yl)acrylonitrile], the results for the fold induction at 5 µM in experiment [1] and in experiment [2] were 1.6 and 0.7, respectively.
For `N#C/C(=C\c1cccc2cnccc12)c1c[nH]c2ccc(OCCC3OCCO3)cc12` [Compound 11, (Z)-2-(5-(2-(1,3-dioxolan-2-yl)ethoxy)-1H-indol-3-yl)-3-(isoquinolin-5-yl)acrylonitrile], in that order: 1 and 0.7.
`COCCOc1ccc2[nH]cc(/C(C#N)=C/c3cccc4cnccc34)c2c1` [Compound 12, (Z)-2-(5-(2-methoxyethoxy)-1H-indol-3-yl)-3-(isoquinolin-5-yl)acrylonitrile]: the fold induction at 5 µM in experiment [1] was 1.6; in experiment [2], 3.2. In experiment [3], the “Inhibition” value is “inhibit lysosome function only”.
The like results for `N#C/C(=C\c1cccc2cnccc12)c1c[nH]c2ccc(OCCCN3CCCC3)cc12` [Compound 13, (Z)-2-(5-(3-(pyrrolidin-1-yl)propoxy)-1H-indol-3-yl)-3-(isoquinolin-5-yl)acrylonitrile] were, in that order, 0.9, 6 and “inhibit lysosome function only”.
Turning to `CC(=O)Nc1ccc2[nH]cc(/C(C#N)=C/c3cccc4cnccc34)c2c1` [Compound 14, N-(3-((Z)-1-cyano-2-(isoquinolin-5-yl)vinyl)-1H-indol-5-yl)acetamide], the fold induction at 5 µM in experiment [1] was 1.2; in experiment [2] it was 0.5.
The like results for `N#C/C(=C\c1cccc2cnccc12)c1c[nH]c2ccc(NC(=O)CCCC[C@@H]3SC[C@@H]4NC(=O)N[C@@H]43)cc12` [Compound 15, N-(3-((Z)-1-cyano-2-(isoquinolin-5-yl)vinyl)-1H-indol-5-yl)-5-((3aS,4S,6aR)-2-oxohexahydro-1H-thieno[3,4-d]imidazol-4-yl)pentanamide] were, in that order, 1.7 and 1.1.
For `CC(=O)NCCC(=O)n1cc(/C(C#N)=C/c2cccc3cnccc23)c2ccccc21` [Compound 17, (Z)—N-(3-(3-(1-cyano-2-(isoquinolin-5-yl)vinyl)-1H-indol-1-yl)-3-oxopropyl)acetamide], the fold induction at 5 µM in experiment [1] amounted to 2.8; in experiment [2], 2.3.
In the case of `N#C/C(=C\c1cccc2cnccc12)c1cn(C(=O)CCCC[C@@H]2SC[C@@H]3NC(=O)N[C@@H]32)c2ccccc12` [Compound 18, (Z)-3-(isoquinolin-5-yl)-2-(1-(5-((3aS,4S,6aR)-2-oxohexahydro-1H-thieno[3,4-d]imidazol-4-yl)pentanoyl)-1H-indol-3-yl)acrylonitrile], the fold induction at 5 µM in experiment [1] amounted to 2.2; in experiment [2], 1.7. Moreover, the “Inhibition” value in experiment [3] is on record as “inhibit mitosis only”.
As for `CC(C)(C)OC(=O)N1CCC(C(=O)n2cc(/C(C#N)=C/c3cccc4cnccc34)c3ccccc32)CC1` [Compound 19, (Z)-tert-butyl 4-(3-(1-cyano-2-(isoquinolin-5-yl)vinyl)-1H-indole-1-carbonyl)piperidine-1-carboxylate], the fold induction at 5 µM was 16.2 in experiment [1] and 5.2 in experiment [2]. In experiment [3], the “Inhibition” value was “exhibit the dual properties of inhibiting both lysosome function and mitosis”.
Turning to `CC(C)(C)OC(=O)NCCC(=O)n1cc(/C(C#N)=C/c2cccc3cnccc23)c2ccccc21` [Compound 20, (Z)-tert-butyl (3-(3-(1-cyano-2-(isoquinolin-5-yl)vinyl)-1H-indol-1-yl)-3-oxopropyl)carbamate], the fold induction at 5 µM was found to be 4.8 in experiment [1] and 3.9 in experiment [2]. Also, the “Inhibition” value in experiment [3] was “exhibit the dual properties of inhibiting both lysosome function and mitosis”.
As for `C(=C\c1c[nH]c2ccccc12)/c1cccc2cnccc12` [Compound 25, 5-((E)-2-(1H-indol-3-yl)vinyl)isoquinoline], the fold induction at 5 µM in experiment [1] was 1.3; in experiment [2], 5.4.
The like results for `O=C(Nc1cccc2cnccc12)c1c[nH]c2ccccc12` [Compound 29, N-(isoquinolin-5-yl)-1H-indole-3-carboxamide] were, in that order, 1.4 and 0.4.

The record behind these values is US10308631B2, “Selective anti-cancer compounds” (NATIONAL UNIVERSITY OF SINGAPORE, priority 2015, dated 2019).
